From ChEMBL document CHEMBL1122916, “Synthesis of xanthines as adenosine antagonists, a practical quantitative structure-activity relationship application” (J Med Chem, 1985)
≈ marks a conversion by molar mass, not a printed value.

What was measured:
Bos taurus = species on record: Bos taurus; assay: log(1000/IC50 determined from bovine brain membrane) expressed as potency; type: functional
Adenosine receptor A1 [1] = target: T1, Adenosine receptor A1 (Bos taurus, UniProt P28190)
T1 sequence (P28190 whole entry): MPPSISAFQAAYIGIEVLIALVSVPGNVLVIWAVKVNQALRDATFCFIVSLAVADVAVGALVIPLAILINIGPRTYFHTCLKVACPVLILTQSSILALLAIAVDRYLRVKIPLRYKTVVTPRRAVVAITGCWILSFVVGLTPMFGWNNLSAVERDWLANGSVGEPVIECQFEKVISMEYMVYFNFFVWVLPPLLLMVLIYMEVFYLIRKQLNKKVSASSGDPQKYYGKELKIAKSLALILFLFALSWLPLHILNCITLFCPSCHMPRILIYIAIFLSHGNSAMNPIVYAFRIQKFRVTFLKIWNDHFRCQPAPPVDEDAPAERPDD
Description: Binding affinity against bovine brain adenosine A1 receptor by using N6-[3H]- cyclohexyladenosine

Adenosine receptor A1 [2] = target: T2, Adenosine receptor A1 (Rattus norvegicus, UniProt P25099); assay: Binding affinity against rat brain adenosine A1 receptor by using N6-[3H]- cyclohexyladenosine as radioligand
T2 sequence (P25099 whole entry): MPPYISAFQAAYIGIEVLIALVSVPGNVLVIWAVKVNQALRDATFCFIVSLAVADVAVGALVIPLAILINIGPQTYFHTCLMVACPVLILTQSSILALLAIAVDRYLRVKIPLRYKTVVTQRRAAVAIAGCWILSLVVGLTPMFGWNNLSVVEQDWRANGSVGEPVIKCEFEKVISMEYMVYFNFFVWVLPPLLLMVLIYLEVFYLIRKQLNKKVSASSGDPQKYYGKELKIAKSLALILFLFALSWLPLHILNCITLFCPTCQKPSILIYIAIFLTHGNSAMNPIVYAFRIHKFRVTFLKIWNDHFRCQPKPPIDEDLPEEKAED

[3] = Solubility in 0.1 N HCl; type: physicochemical
[4] = Equilibrium constant (pKa) was determined.; type: physicochemical
[5] = Partition coefficient (logP); type: physicochemical; conditions: octanol/water
[6] = Solubility in 0.1 M phosphate buffer at pH 7.4; type: physicochemical; conditions: phosphate buffer, read-out: Solubility

| Compound | Potency (Bos taurus) | IC50 (Adenosine receptor A1 [1]) | also measured |
| --- | --- | --- | --- |
| Cn1c(=O)c2nc(-c3ccc(-c4ccccc4)cc3)[nH]c2n(C)c1=O | 2.46 | – | – |
| CCn1c(=O)c2[nH]c(-c3ccc(S(=O)(=O)N4CCSCC4)cc3)nc2n(CC)c1=O | – | 36.6 nM | IC50 (Adenosine receptor A1 [2]): 646 nM |
| CSc1ccc(-c2nc3c(=O)n(C)c(=O)n(C)c3[nH]2)cc1 | 2.7 | – | – |
| CCn1c(=O)c2nc(-c3ccc(Cl)cc3N)[nH]c2n(CC)c1=O | 3.1 | – | – |
| CCc1ccc(-c2nc3c(=O)n(C)c(=O)n(C)c3[nH]2)cc1 | 3.1 | – | – |
| C=CCn1c(=O)c2[nH]c(-c3ccccc3)nc2n(C)c1=O | 2.4 | – | – |
| C=CCn1c(=O)c2nc(-c3ccc(Cl)cc3N)[nH]c2n(CC=C)c1=O | 3.1 | – | – |
| Cn1c(=O)c2nc(-c3ccc(N)cc3)[nH]c2n(C)c1=O | 2.76 | – | – |
| Cn1c(=O)c2[nH]c(-c3ccc(S(=O)(=O)O)cc3)nc2n(C)c1=O | – | 21.9 nM | – |
| CCCn1c(=O)c2nc(-c3ccc(S(=O)(=O)NCCCC(=O)OCC)cc3)[nH]c2n(CCC)c1=O | – | 0.24 nM | IC50 (Adenosine receptor A1 [2]): 18.5 nM |
| CCCn1c(=O)c2[nH]c(-c3ccc(Cl)cc3N)nc2n(CCC)c1=O | – | – | solubility [3]: 0.4 µg/mL (≈ 1.11 µM); pKa [4]: 8.4; logP [5]: 4.02; solubility [6]: < 0.1 µg/mL |
| C=CCn1c(=O)c2[nH]c(-c3ccc(C)cc3N)nc2n(C)c1=O | 2.15 | – | – |
| CCn1c(=O)c2[nH]c(-c3ccc(S(N)(=O)=O)cc3)nc2n(CC)c1=O | – | 0.91 nM | IC50 (Adenosine receptor A1 [2]): 47 nM |
| Cn1c(=O)c2nc(-c3ccc(O)cc3)[nH]c2n(C)c1=O | 2.7 | – | – |
| CCCn1c(=O)c2[nH]c(-c3ccccc3)nc2n(CCC)c1=O | – | 0.7 nM | – |
| Cn1c(=O)c2nc(-c3ccc(Cl)cc3N)[nH]c2n(C)c1=O | 3.46 | – | – |
| Cn1c(=O)c2nc(-c3ccccc3C(=O)O)[nH]c2n(C)c1=O | -0.4 | – | – |
| Cc1ccccc1-c1nc2c(=O)n(C)c(=O)n(C)c2[nH]1 | 2.19 | – | – |
| Cn1c(=O)c2[nH]c(-c3ccc4ccccc4c3)nc2n(C)c1=O | – | 5.5 nM | – |
| COc1cc(OC)cc(-c2nc3c(=O)n(C)c(=O)n(C)c3[nH]2)c1 | 0.3 | – | – |
| Cn1c(=O)c2nc(-c3cccc(C(=O)O)c3)[nH]c2n(C)c1=O | 0 | – | – |
| Cn1c(=O)c2nc(-c3cccc(F)c3)[nH]c2n(C)c1=O | 2.4 | – | – |
| CCn1c(=O)c2[nH]c(-c3cccc(S(=O)(=O)O)c3)nc2n(CC)c1=O | – | 8420 nM | IC50 (Adenosine receptor A1 [2]): 30700 nM |
| Cc1ccc(-c2nc3c(=O)n(C)c(=O)n(C)c3[nH]2)c(N)c1 | 2 | – | – |
| CCCn1c(=O)c2[nH]c(-c3ccc(S(=O)(=O)NCCCN(C)C)cc3)nc2n(CCC)c1=O | – | 0.08 nM | IC50 (Adenosine receptor A1 [2]): 8.2 nM |
| Cn1c(=O)[nH]c2[nH]c(-c3ccccc3)nc2c1=O | 2.6 | – | – |

| Compound | Potency (Bos taurus) | IC50 (Adenosine receptor A1 [1]) | also measured |
| --- | --- | --- | --- |
| Cn1c(=O)c2nc(-c3ccc([N+](=O)[O-])cc3N)[nH]c2n(C)c1=O | 2.6 | – | – |
| COc1ccccc1-c1nc2c(=O)n(C)c(=O)n(C)c2[nH]1 | 0.46 | – | – |
| COc1ccc(-c2nc3c(=O)n(C)c(=O)n(C)c3[nH]2)cc1 | 2.82 | – | – |
| CCn1c(=O)c2[nH]c(-c3ccc(S(=O)(=O)N4CCOCC4)cc3)nc2n(CC)c1=O | – | 13 nM | IC50 (Adenosine receptor A1 [2]): 310 nM |
| Cc1ccc(-c2nc3c(=O)n(C)c(=O)n(C)c3[nH]2)cc1 | 3.1 | – | – |
| Cn1c(=O)c2nc(-c3ccc(I)cc3)[nH]c2n(C)c1=O | 2.89 | – | – |
| Cn1c(=O)c2nc(-c3ccccc3[N+](=O)[O-])[nH]c2n(C)c1=O | 1.1 | – | – |
| CCCn1c(=O)c2nc(-c3ccc(Cl)cc3N)[nH]c2n(CCC)c1=O | 4.3 | – | – |
| Cn1c(=O)c2nc(-c3ccccc3O)[nH]c2n(C)c1=O | 2 | – | – |
| CCCn1c(=O)c2nc(-c3ccc(N)cc3N)[nH]c2n(CCC)c1=O | 3.82 | 0.15 nM | – |
| Cn1c(=O)c2nc(-c3ccc(F)cc3)[nH]c2n(C)c1=O | 2.46 | – | – |
| Cn1c(=O)c2nc(-c3ccc([N+](=O)[O-])cc3)[nH]c2n(C)c1=O | 2.1 | – | – |
| Cn1c(=O)c2nc(-c3cccc4ccccc34)[nH]c2n(C)c1=O | 1.1 | – | – |
| CCOc1ccc(-c2nc3c(=O)n(C)c(=O)n(C)c3[nH]2)cc1 | 2.7 | – | – |
| C=CCn1c(=O)c2nc(-c3ccc(S(=O)(=O)O)cc3)[nH]c2n(CC=C)c1=O | – | 1140 nM | IC50 (Adenosine receptor A1 [2]): 7440 nM |
| CCCn1c(=O)c2nc(-c3ccc(S(=O)(=O)NCCCCN(C)C)cc3)[nH]c2n(CCC)c1=O | – | 0.07 nM | IC50 (Adenosine receptor A1 [2]): 7.5 nM |
| CCn1c(=O)c2nc(-c3cccc(S(=O)(=O)NCCN(C)C)c3)[nH]c2n(CC)c1=O | – | 29.4 nM | IC50 (Adenosine receptor A1 [2]): 553 nM |
| CC(C)c1ccc(-c2nc3c(=O)n(C)c(=O)n(C)c3[nH]2)cc1 | 2.6 | – | – |
| CCn1c(=O)c2[nH]c(-c3ccc(S(=O)(=O)NCCCN(C)C)cc3)nc2n(CC)c1=O | – | 1.6 nM | IC50 (Adenosine receptor A1 [2]): 70 nM |
| CCn1c(=O)c2nc(-c3ccc(S(=O)(=O)NCC(C)O)cc3)[nH]c2n(CC)c1=O (centres undefined) | – | 4.2 nM | IC50 (Adenosine receptor A1 [2]): 138 nM |
| Cn1c(=O)c2[nH]c(-c3ccccc3F)nc2n(C)c1=O | – | 12.5 nM | – |
| Cn1c(=O)c2nc(-c3cccc(N)c3)[nH]c2n(C)c1=O | 2 | – | – |
| Cn1c(=O)c2nc(-c3cccc(O)c3)[nH]c2n(C)c1=O | 2.22 | – | – |
| C=CCn1c(=O)c2nc(-c3ccc(S(=O)(=O)NCCCN(C)C)cc3)[nH]c2n(CC=C)c1=O | – | 10.3 nM | – |
| CCn1c(=O)c2[nH]c(-c3ccc(N(C)C)cc3)nc2n(CC)c1=O | – | 3.3 nM | IC50 (Adenosine receptor A1 [2]): 118 nM |
| COc1ccc(-c2nc3c(=O)n(C)c(=O)n(C)c3[nH]2)c(OC)c1 | 0.7 | – | – |

| Compound | Potency (Bos taurus) | IC50 (Adenosine receptor A1 [1]) | also measured |
| --- | --- | --- | --- |
| Cn1c(=O)c2nc(-c3ccc(Cl)cc3)[nH]c2n(C)c1=O | 3.1 | – | – |
| Cc1cccc(-c2nc3c(=O)n(C)c(=O)n(C)c3[nH]2)c1 | 1.89 | – | – |
| CCn1c(=O)c2nc(-c3ccc(Br)cc3)[nH]c2n(CC)c1=O | 3 | – | – |
| Cn1c(=O)c2[nH]c(-c3ccc(N)cc3)nc2n(C)c1=O | – | 1.75 nM | – |
| Cn1c(=O)c2nc(-c3ccc(Cl)c(Cl)c3)[nH]c2n(C)c1=O | 2.3 | – | – |
| CCCn1c(=O)c2nc(-c3ccccc3)[nH]c2n(CCC)c1=O | 3.15 | – | – |
| Cn1c(=O)c2nc(-c3ccc4ccccc4c3)[nH]c2n(C)c1=O | 2.26 | – | – |
| Cn1c(=O)c2nc(-c3ccc(Br)cc3)[nH]c2n(C)c1=O | 3.12 | – | – |
| COc1cccc(-c2nc3c(=O)n(C)c(=O)n(C)c3[nH]2)c1 | 1.7 | – | – |
| Cc1ccccc1-c1nc2c([nH]1)c(=O)n(C)c(=O)n2C | – | 6.5 nM | – |
| CN(C)c1ccc(-c2nc3c(=O)n(C)c(=O)n(C)c3[nH]2)cc1 | 2.74 | – | – |
| Cc1cc(O)cc(C)c1-c1nc2c(=O)n(C)c(=O)n(C)c2[nH]1 | 1.52 | – | – |
| Cn1c(=O)c2[nH]c(-c3ccc(Cl)cc3N)nc2n(C)c1=O | – | 0.35 nM | – |
| CCCCOc1ccc(-c2nc3c(=O)n(C)c(=O)n(C)c3[nH]2)cc1 | 2.4 | – | – |
| CCn1c(=O)c2nc(-c3ccc(S(=O)(=O)N4CCN(C)CC4)cc3)[nH]c2n(CC)c1=O | – | 6.5 nM | IC50 (Adenosine receptor A1 [2]): 190 nM |
| Cn1c(=O)c2[nH]c(-c3ccc(Br)cc3)nc2n(C)c1=O | – | 0.75 nM | – |
| Cn1c(=O)c2nc(-c3cccc(Br)c3)[nH]c2n(C)c1=O | 2 | – | – |
| Cn1c(=O)c2nc(-c3cccc([N+](=O)[O-])c3)[nH]c2n(C)c1=O | 1.3 | – | – |
| Cn1c(=O)c2nc(-c3ccc(C(=O)O)cc3)[nH]c2n(C)c1=O | 1.3 | – | – |
| Cn1c(=O)c2nc(-c3ccc(N)cc3N)[nH]c2n(C)c1=O | 2.1 | – | – |
| C=CCn1c(=O)c2[nH]c(-c3ccc(Cl)cc3N)nc2n(C)c1=O | 2.7 | – | – |
| CN(C)c1cccc(-c2nc3c(=O)n(C)c(=O)n(C)c3[nH]2)c1 | 1.1 | – | – |
| Cn1c(=O)c2nc(-c3ccccc3F)[nH]c2n(C)c1=O | 1.9 | – | – |
| Cn1c(=O)c2nc(-c3ccccc3N)[nH]c2n(C)c1=O | 2.26 | 5.5 nM | – |
